In one test the test system is Klebsiella pneumoniae. The test can be described thus: Antibacterial activity against Klebsiella pneumoniae ATCC10031 assessed as zone of inhibition by cup-plate agar diffusion method. In kind it is functional. On the technique in general: In agar diffusion tests the substance spreads into inoculated agar from a disc or well.
Test [1] deals with Staphylococcus aureus. The test can be described thus: Antibacterial activity against Staphylococcus aureus ATCC6538 assessed as zone of inhibition by cup-plate agar diffusion method. The class given is functional.
For a further test, the system named is Escherichia coli. Nature of the test: Antibacterial activity against […] assessed as zone of inhibition by cup-plate agar diffusion method. The class given is functional.
Another test concerns Pseudomonas aeruginosa. Nature of the test: Antibacterial activity against Pseudomonas aeruginosa ATCC27853 assessed as zone of inhibition by cup-plate agar diffusion method. In kind it is functional.
A further test concerns the target DNA gyrase (Escherichia coli, UniProt P0AES4+P0AES6). Nature of the test: Inhibition of Escherichia coli DNA gyrase supercoiling activity using […] as substrate incubated for 15 to 30 mins by agarose gel electrophoresis analysis. The class given is protein-complex assay.
Test [2] in a line: Inhibition of Escherichia coli topoisomerase 4 mediated relaxation of supercoiled pHOT1 DNA at expense of ATP hydrolysis by ethidium bromide staining based agarose gel electrophoresis.
Test [3] deals with Staphylococcus aureus. Nature of the test: Antibacterial activity against methicillin-resistant Staphylococcus aureus AUMC 261 assessed as zone of inhibition by cup-plate agar diffusion method. In kind it is functional.

Each structure is given as a SMILES string. In brackets after ≈: the same amount, converted by molar mass.

Usually MIC stands for the smallest concentration in the dilution series that meets the test's criterion for growth inhibition. By IC50 is commonly meant the point on the concentration scale where inhibition reaches its midpoint. Low values mean greater potency in that assay, high ones weaker potency in that assay.

For the compound `N=C1N=C(SCC(=O)N2CCN(c3cc4c(cc3F)c(=O)c(C(=O)O)cn4C3CC3)CC2)NC(=O)/C1=C/c1ccc(Cl)cc1`, the MIC in the test on Klebsiella pneumoniae is 4.91 µM (≈ 3.13 µg/mL); with Staphylococcus aureus [1], greater than 100 µM; with Escherichia coli, 4.91 µM (≈ 3.13 µg/mL); in the test with Pseudomonas aeruginosa it was greater than 100 µM.
With `O=C(CSc1nc(NC(=O)CN2CCN(c3cc4c(cc3F)c(=O)c(C(=O)O)cn4C3CC3)CC2)cc(=O)[nH]1)Nc1ccccc1`, the minimum inhibitory concentration (MIC) in the test with Klebsiella pneumoniae is 19.3 µM (≈ 12.5 µg/mL); in the test with Staphylococcus aureus [1] it was greater than 100 µM; with Escherichia coli, 9.66 µM (≈ 6.26 µg/mL); in the test with Pseudomonas aeruginosa, greater than 100 µM.
On to `CCCn1c(=O)cc(NC(=O)CN2CCN(c3cc4c(cc3F)c(=O)c(C(=O)O)cn4C3CC3)CC2)[nH]c1=O`, for which the MIC with Klebsiella pneumoniae was 11.6 µM (≈ 6.25 µg/mL); in the test with Staphylococcus aureus [1], 18.5 µM (≈ 10 µg/mL); in the test on Escherichia coli, 11.6 µM (≈ 6.25 µg/mL); with Pseudomonas aeruginosa, greater than 100 µM.
Take `N=C1N=C(SCC(=O)N2CCN(c3cc4c(cc3F)c(=O)c(C(=O)O)cn4C3CC3)CC2)NC(=O)/C1=C/c1ccccc1`: the minimal inhibitory concentration (MIC) was 5.18 µM (≈ 3.12 µg/mL) in the test with Klebsiella pneumoniae, greater than 100 µM with Staphylococcus aureus [1], 1.3 µM (≈ 0.783 µg/mL) with Escherichia coli and 2.59 µM (≈ 1.56 µg/mL) in the test with Pseudomonas aeruginosa.
`N=C1N=C(SCC(=O)N2CCN(c3cc4c(cc3F)c(=O)c(C(=O)O)cn4C3CC3)CC2)NC(=O)/C1=C/c1ccc(Br)cc1`: the minimum inhibitory concentration (MIC) with Klebsiella pneumoniae is 9.19 µM (≈ 6.26 µg/mL); in the test on Staphylococcus aureus [1], greater than 100 µM; in the test with Escherichia coli, 4.59 µM (≈ 3.13 µg/mL); in the test with Pseudomonas aeruginosa it was greater than 100 µM.
`Cc1ccc(NC(=O)CSc2nc(NC(=O)CN3CCN(c4cc5c(cc4F)c(=O)c(C(=O)O)cn5C4CC4)CC3)cc(=O)[nH]2)cc1`: the MIC in the test with Klebsiella pneumoniae was 37.8 µM (≈ 25 µg/mL); in the test on Staphylococcus aureus [1] it was greater than 100 µM; with Escherichia coli it was 18.9 µM (≈ 12.5 µg/mL); in the test on Pseudomonas aeruginosa, greater than 100 µM.
With `CCCSc1nc(NC(=O)CN2CCN(c3cc4c(cc3F)c(=O)c(C(=O)O)cn4C3CC3)CC2)cc(=O)[nH]1`, the minimal inhibitory concentration (MIC) was 11.2 µM (≈ 6.26 µg/mL) with Klebsiella pneumoniae, 18 µM (≈ 10 µg/mL) with Staphylococcus aureus [1], 5.61 µM (≈ 3.12 µg/mL) in the test with Escherichia coli and greater than 100 µM with Pseudomonas aeruginosa.
`CCCCSc1nc(NC(=O)CN2CCN(c3cc4c(cc3F)c(=O)c(C(=O)O)cn4C3CC3)CC2)cc(=O)[nH]1`: the minimum inhibitory concentration (MIC) was 5.47 µM (≈ 3.12 µg/mL) in the test on Klebsiella pneumoniae, 17.5 µM (≈ 10 µg/mL) with Staphylococcus aureus [1], 2.73 µM (≈ 1.56 µg/mL) in the test on Escherichia coli and greater than 100 µM in the test with Pseudomonas aeruginosa.
For `O=C(CN1CCN(c2cc3c(cc2F)c(=O)c(C(=O)O)cn3C2CC2)CC1)Nc1cc(=O)[nH]c(=O)[nH]1`, the half-inhibitory concentration (IC50) was 1.72 µM against DNA gyrase and 4.36 µM in test [2]. The minimum inhibitory concentration (MIC) with Klebsiella pneumoniae is 1.57 µM (≈ 0.783 µg/mL); in the test with Staphylococcus aureus [1], 1.25 µM (≈ 0.623 µg/mL); in the test on Escherichia coli, 0.78 µM (≈ 0.389 µg/mL); in the test on Staphylococcus aureus [3], 0.031 µM (≈ 0.0155 µg/mL); in the test on Pseudomonas aeruginosa, greater than 100 µM.
With `COc1ccc(/C=C2\C(=N)N=C(SCC(=O)N3CCN(c4cc5c(cc4F)c(=O)c(C(=O)O)cn5C4CC4)CC3)NC2=O)cc1`, the minimal inhibitory concentration (MIC) was 2.47 µM (≈ 1.56 µg/mL) in the test with Klebsiella pneumoniae; 15.8 µM (≈ 10 µg/mL) with Staphylococcus aureus [1]; 4.94 µM (≈ 3.13 µg/mL) in the test with Escherichia coli; 2.43 µM (≈ 1.54 µg/mL) with Staphylococcus aureus [3]; greater than 100 µM in the test with Pseudomonas aeruginosa.
For the compound `COc1ccc(/C=C2\C(=N)N=C(SCC(=O)N3CCN(c4cc5c(cc4F)c(=O)c(C(=O)O)cn5C4CC4)CC3)NC2=O)cc1OC`, the MIC with Klebsiella pneumoniae is 4.71 µM (≈ 3.12 µg/mL); with Staphylococcus aureus [1], greater than 100 µM; in the test with Escherichia coli, 4.71 µM (≈ 3.12 µg/mL); in the test on Pseudomonas aeruginosa it was 2.97 µM (≈ 1.97 µg/mL).
As for `COc1cc(/C=C2\C(=N)N=C(SCC(=O)N3CCN(c4cc5c(cc4F)c(=O)c(C(=O)O)cn5C4CC4)CC3)NC2=O)cc(OC)c1OC`, the MIC with Klebsiella pneumoniae is 9.03 µM (≈ 6.26 µg/mL); with Staphylococcus aureus [1] it was 4.25 µM (≈ 2.94 µg/mL); in the test with Escherichia coli, 4.51 µM (≈ 3.12 µg/mL); in the test with Staphylococcus aureus [3] it was 0.096 µM (≈ 0.0665 µg/mL); in the test on Pseudomonas aeruginosa it was greater than 100 µM.
For the compound `O=C(CSc1nc(NC(=O)CN2CCN(c3cc4c(cc3F)c(=O)c(C(=O)O)cn4C3CC3)CC2)cc(=O)[nH]1)Nc1ccc(Cl)cc1`, the MIC is 4.58 µM (≈ 3.12 µg/mL) in the test with Klebsiella pneumoniae; 14.7 µM (≈ 10 µg/mL) in the test with Staphylococcus aureus [1]; 18.4 µM (≈ 12.5 µg/mL) in the test with Escherichia coli; 7.22 µM (≈ 4.93 µg/mL) in the test with Staphylococcus aureus [3]; greater than 100 µM with Pseudomonas aeruginosa.
On to `CSc1nc(NC(=O)CN2CCN(c3cc4c(cc3F)c(=O)c(C(=O)O)cn4C3CC3)CC2)cc(=O)[nH]1`, for which the half-inhibitory concentration (IC50) on DNA gyrase stood at 5.72 µM; in test [2], 7.77 µM. The minimal inhibitory concentration (MIC) was 5.91 µM (≈ 3.12 µg/mL) in the test with Klebsiella pneumoniae; 2.37 µM (≈ 1.25 µg/mL) in the test on Staphylococcus aureus [1]; 2.95 µM (≈ 1.56 µg/mL) in the test with Escherichia coli; 0.046 µM (≈ 0.0243 µg/mL) with Staphylococcus aureus [3]; greater than 100 µM in the test on Pseudomonas aeruginosa.
Consider `COc1cc(/C=C2\C(=N)N=C(SCC(=O)N3CCN(c4cc5c(cc4F)c(=O)c(C(=O)O)cn5C4CC4)CC3)NC2=O)ccc1O`, for which the minimum inhibitory concentration (MIC) in the test on Klebsiella pneumoniae is 4.81 µM (≈ 3.12 µg/mL); in the test with Staphylococcus aureus [1] it was 7.58 µM (≈ 4.92 µg/mL); in the test on Escherichia coli, 2.41 µM (≈ 1.56 µg/mL); with Staphylococcus aureus [3] it was 1.57 µM (≈ 1.02 µg/mL); with Pseudomonas aeruginosa it was greater than 100 µM.
As to `Cn1c(NC(=O)CN2CCN(c3cc4c(cc3F)c(=O)c(C(=O)O)cn4C3CC3)CC2)cc(=O)n(C)c1=O`, the MIC in the test with Klebsiella pneumoniae was 2.97 µM (≈ 1.56 µg/mL); in the test with Staphylococcus aureus [1] it was greater than 100 µM; in the test on Escherichia coli it was 1.48 µM (≈ 0.779 µg/mL); in the test with Pseudomonas aeruginosa it was 2.97 µM (≈ 1.56 µg/mL).
Turning to `C=CCSc1nc(NC(=O)CN2CCN(c3cc4c(cc3F)c(=O)c(C(=O)O)cn4C3CC3)CC2)cc(=O)[nH]1`, the minimum inhibitory concentration (MIC) was 22.6 µM (≈ 12.5 µg/mL) in the test on Klebsiella pneumoniae, 18.1 µM (≈ 10 µg/mL) with Staphylococcus aureus [1], 11.3 µM (≈ 6.26 µg/mL) in the test with Escherichia coli and greater than 100 µM with Pseudomonas aeruginosa.
For `N=C1N=C(SCC(=O)N2CCN(c3cc4c(cc3F)c(=O)c(C(=O)O)cn4C3CC3)CC2)NC(=O)/C1=C/c1ccc(F)cc1`, in that order: 20.2 µM (≈ 12.5 µg/mL), greater than 100 µM, 5.03 µM (≈ 3.12 µg/mL) and greater than 100 µM.
As to `COc1ccc(NC(=O)CSc2nc(NC(=O)CN3CCN(c4cc5c(cc4F)c(=O)c(C(=O)O)cn5C4CC4)CC3)cc(=O)[nH]2)cc1`, the minimal inhibitory concentration (MIC) is 18.5 µM (≈ 12.5 µg/mL) in the test on Klebsiella pneumoniae, greater than 100 µM in the test with Staphylococcus aureus [1], 4.61 µM (≈ 3.12 µg/mL) in the test on Escherichia coli and greater than 100 µM in the test with Pseudomonas aeruginosa.
`O=C(O)c1cn(C2CC2)c2cc(N3CCNCC3)c(F)cc2c1=O` [CIPROFLOXACIN]: the minimal inhibitory concentration (MIC) in the test on Klebsiella pneumoniae was determined as 1.21 µM (≈ 0.401 µg/mL); in the test on Staphylococcus aureus [1], 7.58 µM (≈ 2.51 µg/mL); with Escherichia coli, 0.6 µM (≈ 0.199 µg/mL); in the test on Staphylococcus aureus [3], 0.57 µM (≈ 0.189 µg/mL); in the test on Pseudomonas aeruginosa it was 0.6 µM (≈ 0.199 µg/mL). This compound gave an IC50 in test [2] of 8.16 µM.
As to `Cn1c(=O)cc(NC(=O)CN2CCN(c3cc4c(cc3F)c(=O)c(C(=O)O)cn4C3CC3)CC2)[nH]c1=O`, the MIC is 6.1 µM (≈ 3.13 µg/mL) with Klebsiella pneumoniae, greater than 100 µM in the test on Staphylococcus aureus [1], 3.05 µM (≈ 1.56 µg/mL) with Escherichia coli and greater than 100 µM with Pseudomonas aeruginosa.
